Data from article PMC8406298, “Discovery of Fungus-Specific Targets and Inhibitors Using Chemical Phenotyping of Pathogenic Spore Germination” (mBio, 2021).
Values joined by “and” are separate entries in the source; they are usually repeats but may differ in a detail not shown here. Equal entries are not always repeated. Where two headings read alike, the source gives them in different places.

Tests used:
Cryptococcus spores = assay: Quantitative germination assay (QGA), automated microscopy of spore germination; assay type: cell-based, Cryptococcus neoformans serotype D (deneoformans); details: for germination inhibition phenotype (chemical phenotype) in QGA: at phenotypic concentration
Experimental: In this automated microscopy-based assay, germination progression of spores is monitored as a function of changes in cell morphology over time (spores are small and oval; yeast are large and circular). Individual spores in a population (∼1 × 10^4 per sample) are measured to determine size (area) and shape (aspect ratio) from the onset of germination, and the data are collected for each cell over the time of germination (Fig. 1A).
Germination assays were modified from those described by Barkal et al. to introduce automation, increase throughput, and refine assay consistency ([12]). Briefly, 384-well plates (Thermo Scientific 142762) were loaded with 10^5 spores per well, and at 0 h, synthetic medium plus 2% dextrose (SD medium) containing the compounds of interest was added to the sample (final volume of 40 μl). All compounds were tested initially at 80 μM; however, concentrations were changed on a case-by-case basis for subsequent experiments. All assays and controls were performed with a final concentration of 0.8% DMSO (the compound solvent) unless specified otherwise. Spores were germinated at 30°C in a humidified chamber, and the same ∼5 × 10^3 cells were monitored every 2 h for 16 h. Imaging was performed on a Ti2 Nikon microscope, and each condition was visualized in a minimum of two individual wells with three fields of view acquired from each well. All images were analyzed as described previously based on cell shape and size using ImageJ. The population ratios of spores, intermediates, and yeast were determined. Error bars in plots are based on the variation among all fields of view acquired. Level of germination was determined by quantifying the decrease in the proportion of spores in a population, and rates were quantified by determining the change in this proportion over time. For all two-dimensional histograms, the x axis represents area from 0 μm^2 to 25 μm^2, and the y axis represents the aspect ratio from 0.4 to 1.
Cycloheximide (0.078 μM to 80 μM) (Dot Scientific, Inc. DSC81040-1), G418 (1.6 mM) (Fisher Scientific AAJ6267106), and puromycin (20 mM) (Dot Scientific, Inc. DSP33020-0.025) were tested with no DMSO (all were water soluble), whereas anisomycin (62.5 μM) (Sigma-Aldrich A9789-5MG) was tested in 2.5% DMSO.
Furcarbanil (80 μM) (Sigma-Aldrich T313122), rotenone (10 μM) (Fisher Scientific 501687383), and antimycin A (2.5 μM) (Santa Cruz Biotechnology, Inc. sc-202467A) were all tested in 0.8% DMSO, and TTFA (200 μM) (Sigma-Aldrich 88300-5G) was tested in 3% DMSO.

[1] = test system: Cryptococcus yeast (CHY3833 and CHY3836); assay: Yeast replication secondary screen (OD600); assay type: cell-based, Cryptococcus neoformans serotype D (deneoformans); details: 10 μM, 12 h at 30°C
Experimental: (ii) Yeast replication. CHY3833 and CHY3836 were each grown in YPD liquid overnight at 30°C to saturation and then resuspended in 0.5× YPD at an OD600 of 0.005. Strains were aliquoted into 384-well plates with inhibitors and grown for 12 h at 30°C at […] before OD600 readings were taken. Compounds that caused a >10% decrease in growth were considered yeast growth inhibitors.

[2] = test system: normal human dermal fibroblasts (NHDF) cells; assay: Fibroblast cytotoxicity (CellTiter-Glo); assay type: cell-based; details: 10 µM
Method in brief: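 Normal human dermal fibroblasts, 1 × 10^3 per well, exposed to compounds at 10 μM for 72 h at 37°C. Viability read as ATP-dependent CellTiter-Glo luminescence. Dose-response runs titrated compounds from 80 μM to 0.5 μM in duplicate.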

SMILES	germination inhibition phenotype (chemical phenotype) in QGA (Cryptococcus spores)	phenotypic concentration (concentration showing the germination phenotype in QGA) (Cryptococcus spores)	Yeast Inhibition: % Inhibition [1]	Cytotoxicity: Relative Cell Viability (% of Negative Control) [2]	further results
COc1ccc(SCCCC(=O)Nc2ncnc3sccc23)cc1 [A8]	asynchrony				
CCc1ccccc1NC(=O)c1cc(C)oc1C [B1]		80 µM			
CN[C@@H]1[C@@H](O)[C@@H](O[C@@H]2[C@@H](O)[C@H](O[C@H]3O[C@H]([C@@H](C)O)[C@@H](O)[C@H](O)[C@H]3N)[C@@H](N)C[C@H]2N)OC[C@]1(C)O [Geneticin, reference compound]	slow-down				
CC(C)(C)c1ccc(-c2csc(N)n2)cc1 [PubChem CID 673711]	bimodal	5 µM			
Cc1nc(NC(=O)CCc2ccccc2)sc1C [PubChem CID 733834]	morphological variability	40 µM			
Cc1ccccc1OCCn1cnc2ccccc21 [PubChem CID 749608]	slow down	10 µM			
CCc1ccc2nc(N)sc2c1 [PubChem CID 773093]	slow end	5 µM			
Nc1nc(-c2ccc(Oc3ccccc3)cc2)cs1 [PubChem CID 780598]	bimodal	20 µM			
Cc1ccc(OCCn2c(C)nc3ccccc32)cc1 [PubChem CID 790960]	slow down	80 µM			
Nc1nc(COc2ccc3ccccc3c2)cs1 [PubChem CID 973573]	asynchrony	10 µM			
Cc1ccccc1OCCSCc1nc2ccccc2[nH]1 [PubChem CID 1589778]	slow down	80 µM			
Clc1ccc(OCCSCc2nc3ccccc3[nH]2)cc1 [PubChem CID 1589789]	slow down	20 µM			
CCCOc1ccc(CSc2nc3ccccc3[nH]2)cc1 [PubChem CID 1653621]	slow down	80 µM			
c1ccc(OCCCCSc2nc3ccccc3[nH]2)cc1 [PubChem CID 1653635]	slow down	80 µM			
Cc1cc(C)c2sc(NN)nc2c1 [PubChem CID 2049855]	combination of the “morphological variability” and the “slow end” phenotypes				phenotypic concentration (concentration showing the germination phenotype in QGA) (Cryptococcus spores; listed as G2): 20 µM and 40 µM
CCCCSc1nc2ccc(C)cc2[nH]1 [PubChem CID 2129690]	slow down	80 µM			
NNc1nc2cc3c(cc2s1)OCCO3 [PubChem CID 2771030]					germination inhibition phenotype in QGA (Cryptococcus spores; at 2.5 µM): bimodal; germination inhibition phenotype in QGA (Cryptococcus spores; at higher concentrations (5 µM)): combination phenotype of “bimodal” and “slow end”; phenotypic concentration (concentration showing the germination phenotype in QGA) (Cryptococcus spores; listed as G3): 2.5 µM and 5 µM
O=C(NCCc1nc2c(c(C(F)(F)F)n1)CCCC2)c1ccc(F)cc1Cl [compound 71797126]			20.3%	106.4 % of Negative Control	
Cc1cc(C(=O)N2CCC(Oc3ncccc3Cl)CC2)c(C)o1 [compound 71798856]			54.8%	93.6 % of Negative Control	
O=C(COc1ccccc1F)N1CCC(Oc2ncccc2Br)CC1 [compound 71799471]			2.6%	101.4 % of Negative Control	

SMILES	germination inhibition phenotype (chemical phenotype) in QGA (Cryptococcus spores)	phenotypic concentration (concentration showing the germination phenotype in QGA) (Cryptococcus spores)	Yeast Inhibition: % Inhibition [1]	Cytotoxicity: Relative Cell Viability (% of Negative Control) [2]	further results
O=C(Nc1cnc(Oc2ccccc2)nc1)c1cccc(Cl)c1 [compound 71799766]			7.9%	99.9 % of Negative Control	
O=C1CC(c2cccs2)CC(=O)N1Cc1csc(-c2ccccc2)n1 [compound 71801965]			3.9%	95.9 % of Negative Control	
Cc1cc(C)n(-c2nc(CCNC(=O)c3cc(C)oc3C)cs2)n1 [compound 71802096]			42.7%	103.6 % of Negative Control	
Cc1cc(C(=O)NCC#CCOc2cccc(C(F)(F)F)c2)c(C)o1 [compound 71803023]			44.0%	90.7 % of Negative Control	
O=S(=O)(NCC#CCOc1cccc(C(F)(F)F)c1)c1cccs1 [compound 71803055]			7.0%	63.8 % of Negative Control	
O=C(c1ccc(OC(F)(F)F)cc1)N(Cc1ccoc1)Cc1cccs1 [compound 71804107]			7.9%	94.0 % of Negative Control	
O=C(CCc1ccccc1Br)N1CCC(c2cccs2)CC1 [compound 71807060]			5.9%	100.7 % of Negative Control	
O=C(CCc1ccccc1Br)N1CCC(c2ccsc2)CC1 [compound 71807075]			9.6%	93.1 % of Negative Control	
O=C(Cc1ccc(F)cc1)N1CCN(c2nc(-c3ccsc3)cs2)CC1 [compound 71811049]			4.0%	99.2 % of Negative Control	
Cc1cc(C(=O)NCCn2nc(C(F)(F)F)c3c2CCCC3)c(C)o1 [compound 72718563]			79.7%	92.0 % of Negative Control	
Cl.Fc1ccc(Nc2nc(-c3ccoc3)cs2)cc1F [compound 72720194]			29.6%	70.6 % of Negative Control	
O=C(NC1CCN(c2nccs2)C1)c1nc2ccccc2s1 (stereo not drawn) [compound 76149097]			10.4%	94.5 % of Negative Control	
O=C(C1CCC1)N1CCCCC(c2ccc(Cl)cc2)C1 (stereo not drawn) [compound 76150259]			-2.1%	108.6 % of Negative Control	
O=C(c1ccc2cc[nH]c2c1)N1CCCCC(c2ccc(Cl)cc2)C1 (stereo not drawn) [compound 76150266]			-14.0%	92.9 % of Negative Control	
O=C(c1ccc2nsnc2c1)N1CCSC(c2ccccc2Cl)CC1 (stereo not drawn) [compound 76151751]			14.7%	97.8 % of Negative Control	
O=C(c1cc2ccccc2s1)N1CCC(c2ccsc2)CC1 [compound 91624614]			-0.5%	96.6 % of Negative Control	
Cc1cc(C(=O)NCC2Cc3ccccc3CO2)c(C)o1 (stereo not drawn) [compound 91626508]			53.9%	98.3 % of Negative Control	
CCCCc1nnc(NC(=O)c2cc(OC)ncn2)s1 [compound 91628556]			83.1%	88.7 % of Negative Control	
Cc1cc(C(=O)NCCc2nc3c(c(C(F)(F)F)n2)COCC3)c(C)o1 [compound 91629266]			31.5%	103.1 % of Negative Control	
O=C(NCc1ccnc(-c2cccs2)c1)c1nc2ccccc2s1 [compound 91630328]			3.0%	93.3 % of Negative Control	
